Reference: US20200253877A1, “GEMCABENE, PHARMACEUTICALLY ACCEPTABLE SALTS THEREOF, COMPOSITIONS THEREOF AND METHODS OF USE THEREFOR” (NEUROBO PHARMACEUTICALS, INC., priority 2018, published 2020)

Key:
[1] = Aqueous solubility of gemcabene calcium salt forms over 24 hours (HPLC concentration, XRPD form); assay type: physicochemical; conditions: slurry in water, approximately 25° C.
Protocol: To each vial, approximately 3 mL to 4 mL water were added and the samples were mixed at ambient temperature (approximately 25° C.) for approximately 24 hours. […] From each vial, samples of the slurries were taken after 1, 4, and 24 hours, which were separated by centrifugation. The solids were separated by centrifugation and analyzed by XRPD for solid form and by HPLC for concentration.

[2] = Stability study of gemcabene calcium salt forms (XRPD form, HPLC/CAD purity); assay type: physicochemical
Protocol: The stability studies were carried out using storage conditions at a) 40° C. and 75% relative humidity (RH), b) at 80° C. and c) at ambient temperature (approximately 22° C.). After 7 days and 14 days, the samples were removed from the relevant storage conditions and initially analyzed by XRPD to identify any form changes. The samples were then analyzed by HPLC/CAD (high-performance liquid chromatography equipped with a charged aerosol detector) for purity, with all solid purity values given on a w/w % basis.

Question: Which results are given for CC(C)(CCCCOCCCCC(C)(C)C(=O)[O-])C(=O)[O-].[Ca+2] [amorphous gemcabene calcium salt]?
Answer: change in polymorphic form during the test period (XRPD) ([1]; 24 hours): conversion to a new polymorph, gemcabene calcium salt hydrate Crystal Form 6; change in concentration (HPLC) during the experiment ([1]; sampled 1, 4, 24 hours): initial increase in concentration after 4 hours followed by a slight decrease in the concentration after 24 hours; change in form (XRPD) ([2]; 2-week study, 40° C./75% RH, 80° C. and ambient): No change in the form; purity (HPLC/CAD) compared to the starting form ([2]; after 2 weeks storage, all 3 storage conditions): drop in purity
